{
  "source": "patent US20150125528A1",
  "about": "(The Water Initiative, LLC, priority 2012, published 2015)",
  "assay": "calcium hypochlorite stability temperature data",
  "format": "physicochemical",
  "details": "below approximately 120° C., 15 minute exposure",
  "source_text": "FIG. 2 illustrates calcium hypochlorite stability temperature data.",
  "data": [
    {"smiles": "[Ca+2].[O-]Cl.[O-]Cl", "note": "[calcium hypochlorite]", "values": [
      {"measurement": "free chlorine concentration on heating", "result": "maintains its free chlorine concentration"}
    ]}
  ]
}
